Test results from patent US8158809B2 (priority 2003, dated 2012).

Tested on: HCT116
Test: Cell colony formation assay
Format: cell-based
Details: 72 hours with drug, colonies counted after 7 days
Protocol: This example provides directions for growing cells and testing compounds of the invention for their effect on the growth of the cells. All cells were purchased from DCTDC Tumor Repository, NCI, NIH.
The cells were incubated in a CO2 incubator at 37° C. for 5 hours for attachment to the bottom of Petri dishes. Drugs were made fresh in medium at ten times the final concentration, and then 0.3 ml of this stock solution was added to the 2.7 ml of medium in the dish. The cells were then incubated with drugs for 72 hours at 37° C. At the end of the incubation the drug-containing media were decanted, the dishes were rinsed with 4 ml of Hank's Balance Salt Solution (HBSS), 5 ml of fresh medium was added, and the dishes were returned to the incubator for colony formation. The cell colonies were counted using colony counter after incubation for 7 days for HCT116 cells and PC-3 cells and 8 days for VM46 cells, respectively. Cell survival (%) was calculated, as shown in Table I below for HCT 116 cells.

Row | Structure (SMILES) | In Vitro Efficacy: Survival (%) of HCT116 (10 nM) [%] | In Vitro Efficacy: Survival (%) of HCT116 (100 nM) [%] | In Vitro Efficacy: Survival (%) of HCT116 (1000 nM) [%]
1 | COc1cc([C@@H]2c3cc4c(cc3[C@H](OC(=O)COc3ccc5c(C)c(Cl)c(=O)oc5c3)[C@H]3COC(=O)[C@H]23)OCO4)cc(OC)c1OC [Compound 000405, Podophyllotoxin-4-O-ester of 7-(carboxymethoxy)-3-chloro-4-methylcoumarin] | 90.45 | 0 | 0
2 | COc1cc([C@@H]2c3cc4c(cc3[C@H](OC(=O)c3cc(C(=O)O[C@H]5c6cc7c(cc6[C@@H](c6cc(OC)c(OC)c(OC)c6)[C@H]6C(=O)OC[C@@H]65)OCO7)cc([N+](=O)[O-])c3)[C@H]3COC(=O)[C@H]23)OCO4)cc(OC)c1OC [Compound 000331, Bis(Podophyllotoxin-4-O-ester) of 5-nitroisophthalic acid] | – | 62.56 | 0
3 | COc1cc(C2c3cc4c(cc3C(OC(=O)COc3ccc(C=O)cc3)C3COC(=O)C23)OCO4)cc(OC)c1OC (stereo not drawn) [Compound 000323, Podophyllotoxin-4-O-ester of 4-formylphenoxyacetic acid] | 90.86 | 0 | 0
4 | COc1cc(C2c3cc4c(cc3C(OC(=O)CCCc3ccc(N(CCCl)CCCl)cc3)C3COC(=O)C23)OCO4)cc(OC)c1OC (stereo not drawn) [Compound 0003132, Podophyllotoxin-4-O-ester of 4-(4-dichloroethylamino) phenylbutyric acid] | – | 97.65 | 0
5 | COc1cc([C@@H]2c3cc4c(cc3[C@H](OC(=O)COc3ccc(Cl)cc3Cl)[C@H]3COC(=O)[C@H]23)OCO4)cc(OC)c1OC [Compound 000324, Podophyllotoxin-4-O-ester of 2,4-dichlorophenoxyacetic acid] | 100 | 0 | 0
6 | COc1cc([C@@H]2c3cc4c(cc3[C@H](OC(=O)c3cccc(NC(=O)CCl)c3)[C@H]3COC(=O)[C@H]23)OCO4)cc(OC)c1OC [Compound 000124, Podophyllotoxin-4-O-ester of 3-chloroacetamidobenzoic acid] | 83.22 | 0 | 0
7 | COc1cc([C@@H]2c3cc4c(cc3[C@H](OC(=O)C(C)ON=C3c5cc([N+](=O)[O-])cc([N+](=O)[O-])c5-c5c3cc([N+](=O)[O-])cc5[N+](=O)[O-])[C@H]3COC(=O)[C@H]23)OCO4)cc(OC)c1OC (stereo partly drawn) [Compound 000222, Podophyllotoxin-4-O-ester of (+)-2-(2,4,5,7-tetranitro-9-fluorenylideaminooxy)-propionic acid] | 100 | 1.46 | 0
8 | COc1cc([C@@H]2c3cc4c(cc3[C@H](OC(=O)c3cc(=O)c5ccccc5o3)[C@H]3COC(=O)[C@H]23)OCO4)cc(OC)c1OC [Compound 000215, Podophyllotoxin-4-O-ester of chromone-2-carboxylic acid] | 92.46 | 0 | 0
9 | COc1cc([C@@H]2c3cc4c(cc3[C@H](OC(=O)[C@@H]3CCCN3C(=O)OC(C)(C)C)[C@H]3COC(=O)[C@H]23)OCO4)cc(OC)c1OC [Compound 000203, Podophyllotoxin-4-O-ester of N-(tert-Butoxycarbonyl)-L-proline] | – | 89.76 | 0
10 | COc1cc(C2c3cc4c(cc3C(OC(=O)C3Cc5ccccc5CN3C(=O)OC(C)(C)C)C3COC(=O)C23)OCO4)cc(OC)c1OC (stereo not drawn) [Compound 000302, Podophyllotoxin-4-O-ester of N—BOC-1,2,3,4-Tetrahydroisoquinoline-3-carboxylic acid] | – | 100 | 0
11 | COc1cc(C2c3cc4c(cc3C(OC(=O)COc3ccc(I)cc3)C3COC(=O)C23)OCO4)cc(OC)c1OC (stereo not drawn) [Compound 000614, Podophyllotoxin-4-O-ester of 4-iodophenoxyacetic acid] | 84.99 | 0 | 0
12 | COc1cc(C2c3cc4c(cc3C(OC(=O)c3ccc([N+](=O)[O-])o3)C3COC(=O)C23)OCO4)cc(OC)c1OC (stereo not drawn) [Compound 000202, Podophyllotoxin-4-O-ester of 5-nitro-2-furoic acid] | 81.68 | 0 | 0
13 | COc1cc(C2c3cc4c(cc3C(OC(=O)COC3CC(C)CCC3C(C)C)C3COC(=O)C23)OCO4)cc(OC)c1OC (stereo not drawn) [Compound 000218, Podophyllotoxin-4-O-ester of (+)-menthoxyethanoic acid] | – | 44.28 | 0
14 | COc1cc(C2c3cc4c(cc3C(OC(=O)c3cc(-c5ccccc5)nc5ccccc35)C3COC(=O)C23)OCO4)cc(OC)c1OC (stereo not drawn) [Compound 000125, Podophyllotoxin-4-O-ester of 2-phenyl-4-quinolinecarboxylic acid] | – | 90.34 | 0
15 | COc1cc([C@@H]2c3cc4c(cc3[C@H](OC(=O)COc3ccc(F)cc3)[C@H]3COC(=O)[C@H]23)OCO4)cc(OC)c1OC [Compound 000615, Podophyllotoxin-4-O-ester of 4-fluorophenoxyacetic acid] | 100 | 0 | 0
16 | COc1cc(C2c3cc4c(cc3C(OC(=O)COc3cccc(Cl)c3)C3COC(=O)C23)OCO4)cc(OC)c1OC (stereo not drawn) [Compound 000622, Podophyllotoxin-4-O-ester of 3-chlorophenoxyacetic acid] | 98.48 | 0 | 0
